Patent publication US20260308535A1, “ANTI-CANCER TREATMENTS AND METHODS OF USE THEREOF” (Memorial Sloan-Kettering Cancer Center, priority 2023, published 2026)

T1: IDH2 R140Q (Homo sapiens, UniProt P48735, R140Q)
T1 sequence (P48735 40-452 R140Q): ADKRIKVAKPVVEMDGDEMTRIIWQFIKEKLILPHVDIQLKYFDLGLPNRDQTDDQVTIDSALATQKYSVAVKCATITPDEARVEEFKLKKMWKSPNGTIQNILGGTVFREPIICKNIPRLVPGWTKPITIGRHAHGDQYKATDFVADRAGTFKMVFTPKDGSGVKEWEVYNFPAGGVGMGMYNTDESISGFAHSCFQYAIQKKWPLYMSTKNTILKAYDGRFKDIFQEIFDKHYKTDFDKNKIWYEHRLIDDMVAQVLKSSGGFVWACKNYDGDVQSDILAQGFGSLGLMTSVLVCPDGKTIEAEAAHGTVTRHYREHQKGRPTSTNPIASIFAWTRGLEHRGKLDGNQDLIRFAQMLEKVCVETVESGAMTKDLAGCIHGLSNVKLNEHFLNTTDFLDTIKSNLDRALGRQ


Experiments:
[1] = target: T1, IDH2 R140Q; conditions: 10 μM compound; NADH 0.5 mM; αKG 10 mM; enzyme 7.5 μg/ml; 37° C.
Experimental: Briefly, enzyme reactions were set up in 384-well plate format with purified enzyme (7.5 μg/ml), NADH (0.5 mM), αKG (10 mM; added last to start reaction), and HEPES buffer. Compounds were screened using a concentration of 10 μM in DMSO. No enzyme groups were used for each condition as negative controls. […] Reactions were incubated at 37° C., and absorbance at 340 nm was monitored using an EnVision plate reader at 30-minute intervals. Results were analyzed using KNIME. Briefly, concatenated spreadsheets containing absorbance metadata (well number, plate information, absorbance read outs etc.) were merged. For baseline correction, the “no enzyme with drug” values (N1: no enzyme negative control with drug) for each condition were subtracted from the “plus enzyme with drug” values (S: enzyme with drug) for each condition. Then the baseline corrected enzyme values (S−N1) were normalized to the “no enzyme control” values (N2: no enzyme control with DMSO) to calculate robust (median based) percent of “no enzyme control” (POC) and Z-scores. […] To confirm hits, enzyme assays were carried out in the same as screening but in a 96-well plate format with 10 μM of each hit, and purified enzyme (7.5 μg/ml), NADH (0.5 mM), and αKG (10 mM). Absorbance was read at 340 nm every 15 sec for 3 hr.

[2] = tested on: IDH2 R172X; assay: Effect of EDBN on IDH2 R172X mutations; format: biochemical; conditions: FIG. 50
[3] = target: T1, IDH2 R140Q; assay: NADH-dependent reduction of αKG to 2HG, RQ; conditions: role: cofactor; RQ homodimers; NADH 0.25 mM; αKG 5.0 mM
[4] = tested on: Ba/F3 leukemia cells with IDH2 allelic configurations; format: cell-based, mouse
Experimental: Panel A Schematic depicting IDH2 dimers retrovirally transduced into Ba/F3 cells. ‘Pre’received IDH2 WT-mCherry plus IDH2 RQ-YFP; ‘Trans’ received IDH2 RQ-YFP plus IDH2 IM-GFP; ‘Cis’ received IDH2 WT-mCherry plus IDH2 RQ/IM-GFP. […] Panel C Competitive growth of ‘Pre’, ‘Trans’, and ‘Cis’ cells mixed at a 1:1:1 ratio and cultured with vehicle (DMSO) or the mutant IDH2 inhibitor enasidenib (100 nM). Changes in the percentage of ‘Pre’, ‘Trans’, and ‘Cis’ cells were assessed weekly by flow cytometry (n=3). […] Results throughout figure are representative of >3 independent experiments. Data are mean±SEM unless otherwise specified. **P<0.01, ***P<0.001, ****P<0.0001.
Cells harboring these distinct allelic configurations were marked with different combinations of fluorescent proteins (FIG. 1 panel B).

[5] = tested on: IDH2 R140Q; conditions: cited from earlier work
[6] = substrate: O=C(O)CCC(=O)C(=O)O; assay: NADPH-dependent 2HG production, Michaelis-Menten kinetics, active-site RQ homodimers; format: biochemical, human; conditions: other: role: substrate, cofactor NADPH 0.33 mM, enzyme 7.5 μg/ml, 37.0 °C

| Molecule | Z-Score, Screen #1 [1] | Z-Score, Screen #2 [1] | further results |
| --- | --- | --- | --- |
| CC(=O)O[C@@H]1C[C@H]2C(C)(C)C(=O)C=C[C@]2(C)[C@H]2CC[C@]3(C)C(=CC(=O)O[C@H]3c3ccoc3)[C@@]21C [Deoxygedunin] | 7.959 | 7.554 |  |
| CC(=O)O[C@@H]1C[C@H]2C(C)(C)C(=O)CC[C@]2(C)[C@H]2CC[C@@]3(C)[C@H](c4ccoc4)OC(=O)[C@H]4O[C@]43[C@@]21C [Dihydrogedunin] | 9.578 | 4.452 |  |
| CCc1ccc2[nH]c3nc(C)cc(C)c3c(=O)c2c1 [EDBN, 7-ethyl-2,4-dimethylbenzo[b][1,8]naphthyridin-5(10H)-one] |  |  | activity on IDH2 R172X mutations [2]: also works on IDH2 R172X mutations |
| O=c1c(O)c(-c2ccc(O)c(O)c2)oc2c(O)c(O)cc(O)c12 [Gossypetin] | 9.982 | 13.35 |  |
| COC1=C(OC)C(=O)C(CCCCCCCCCCO)=C(C)C1=O [Idebenone] | 11.33 | 8.499 |  |
| NC(=O)C1=CN([C@@H]2O[C@H](COP(=O)(O)OP(=O)(O)OC[C@H]3O[C@@H](n4cnc5c(N)ncnc54)[C@H](O)[C@@H]3O)[C@@H](O)[C@H]2O)C=CC1 [NADH, nicotinamide adenine dinucleotide] |  |  | use of NADH to reduce αKG [3]: no ability to use NADH to reduce αKG |
| CC(C)(O)CNc1nc(Nc2ccnc(C(F)(F)F)c2)nc(-c2cccc(C(F)(F)F)n2)n1 [enasidenib] |  |  | competitive growth of 'Cis' cells [4]: selective growth disadvantage; competitive growth of 'Trans' cells [4]: selectively grew out in the presence of enasidenib; effect of allosteric binding on active site conformation [5]: can stabilize inhibitory open conformation |
| IDH2 R140Q (RQ) homodimers (Homo sapiens; R140Q) (protein) ADKRIKVAKPVVEMDGDEMTRIIWQFIKEKLILPHVDIQLKYFDLGLPNRDQTDDQVTIDSALATQKYSVAVKCATITPDEARVEEFKLKKMWKSPNGTIQNILGGTVFREPIICKNIPRLVPGWTKPITIGRHAHGDQYKATDFVADRAGTFKMVFTPKDGSGVKEWEVYNFPAGGVGMGMYNTDESISGFAHSCFQYAIQKKWPLYMSTKNTILKAYDGRFKDIFQEIFDKHYKTDFDKNKIWYEHRLIDDMVAQVLKSSGGFVWACKNYDGDVQSDILAQGFGSLGLMTSVLVCPDGKTIEAEAAHGTVTRHYREHQKGRPTSTNPIASIFAWTRGLEHRGKLDGNQDLIRFAQMLEKVCVETVESGAMTKDLAGCIHGLSNVKLNEHFLNTTDFLDTIKSNLDRALGRQ |  |  | Km [6]: 1740 µM; Vmax [6]: 6.95 µM/min; kcat/Km [6]: 2.14e+06 M⁻¹ s⁻¹ |
